Test results from patent EP3134439B1, “ANTI-PSYK ANTIBODY MOLECULES AND USE OF SAME FOR SYK-TARGETED THERAPY” (Millennium Pharmaceuticals, Inc., priority 2014, dated 2015).
Marks after values point to notes of the source that are not given here.

Columns and labels:
[1] = tested on: TMD8 (ABC); assay: Anti-tumor activity, TMD8 xenograft model; assay type: in vivo; conditions: 60 mg/kg; TGI calculated on Day 14
[2] = tested on: OCI-LY19 GCB DLBCL xenografts; assay: Anti-tumor activity, OCI-LY19 xenograft model; assay type: in vivo, SCID mice
From the text: (§1) Mean tumor volumes (mm^3) ± SEM (N=8/group) are shown where treatment was initiated when mean tumor volume was approximately 200 mm3.

[3] = tested on: OCI-LY10 ABC DLBCL xenografts; assay: Anti-tumor activity, OCI-LY10 xenograft model; assay type: in vivo, SCID mice
From the text: as §1

[4] = tested on: DLBCL cell lines; assay: Inhibition of cellular proliferation; assay type: cell-based; conditions: subset of relevant models
[5] = tested on: PHTX-95L primary DLBCL tumor xenografts; assay: Anti-tumor activity, PHTX-95L xenograft model; assay type: in vivo, SCID mice
From the text: as §1

[6] = tested on: HBL-1 (ABC); assay: Anti-tumor activity, HBL-1 xenograft model; assay type: in vivo
[7] = target: VEGFR; assay: VEGFR enzyme inhibition; assay type: biochemical
[8] = tested on: WSU; assay: Anti-tumor activity, WSU xenograft model; assay type: in vivo
[9] = daily oral administration of 60 mg/kg
[10] = 60 mg/kg orally once daily for 21 days
[11] = 120 mg/kg orally once daily for 21 days

Cn1cc(-c2nc(N[C@@H]3CCCC[C@@H]3N)c(F)c3c2C(=O)NC3)cn1 [Compound A, 6-((1R,2S)-2-Aminocyclohexylamino)-7-fluoro-4-(1-methyl-1H-pyrazol-4-yl)-1H-pyrrolo[3,4-c]pyridin-3(2H)-one]
TGI [1]: 45%*
TGI ([2]; 60 mg/kg orally once daily for 14 days, TGI calculated on Day 16): 33%**
TGI [2, 9]: 37%
TGI [3, 10]: 50%
TGI [3, 11]: 59%
TGI [3, 9]: 50%
EC50 [4]: 25 to 400 nM
TGI [5, 10]: 56%
TGI [5, 11]: 70%
TGI ([5]; daily oral administration, 120 mg/kg): 70%
TGI ([6]; 60 mg/kg): 32%
TGI ([6]; 120 mg/kg): 36%
IC50 [7]: 140 nM
TGI ([8]; 60 mg/kg): 52%
TGI [8, 9]: approximately 50%
